Results published in PubChem BioAssay AID1963861 (Molecular Pharmacology Branch, DTP, NCI, 2024).

Test system: 885724-159-R-J1-PDC KRAS PDC multicell spheroid viability
Assay: Anticancer human tumor 885724-159-R-J1-PDC patient-derived pancreatic adenocarcinoma cell line growth inhibition [KRAS2]
Settings: for viability, T/C: stronger effect = lower value
Outline: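 Combination screen of spheroid viability in tumor-cell co-cultures with endothelial (HUVEC) and mesenchymal stem cell stroma. Each agent was tested in half-log dilutions, topping at clinical Cmax or at 10 microM without a known Cmax.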

[1] = curve of first compound, second compound 0.1 µM
[2] = curve of first compound, second compound 0.316 µM
[3] = curve of first compound, second compound 1 µM
[4] = curve of first compound, second compound 3.16 µM
[5] = second compound 0.1 µM, first compound 0.0316 µM
[6] = second compound 0.1 µM, first compound 0.1 µM
[7] = second compound 0.1 µM, first compound 0.316 µM
[8] = second compound 0.1 µM, first compound 1 µM
[9] = second compound 0.1 µM, first compound 3.16 µM
[10] = second compound 0.1 µM, first compound 10 µM
[11] = second compound 0.316 µM, first compound 0.0316 µM
[12] = second compound 0.316 µM, first compound 0.1 µM
[13] = second compound 0.316 µM, first compound 0.316 µM
[14] = second compound 0.316 µM, first compound 1 µM
[15] = second compound 0.316 µM, first compound 3.16 µM
[16] = second compound 0.316 µM, first compound 10 µM
[17] = second compound 1 µM, first compound 0.0316 µM
[18] = second compound 1 µM, first compound 0.1 µM
[19] = second compound 1 µM, first compound 0.316 µM
[20] = second compound 1 µM, first compound 1 µM
[21] = second compound 1 µM, first compound 3.16 µM
[22] = second compound 1 µM, first compound 10 µM
[23] = second compound 3.16 µM, first compound 0.0316 µM
[24] = second compound 3.16 µM, first compound 0.1 µM
[25] = second compound 3.16 µM, first compound 0.316 µM
[26] = second compound 3.16 µM, first compound 1 µM
[27] = second compound 3.16 µM, first compound 3.16 µM
[28] = second compound 3.16 µM, first compound 10 µM
[29] = curve of first compound, second compound 0.0316 µM
[30] = second compound 0.0316 µM, first compound 0.0316 µM
[31] = second compound 0.0316 µM, first compound 0.1 µM
[32] = second compound 0.0316 µM, first compound 0.316 µM
[33] = second compound 0.0316 µM, first compound 1 µM
[34] = second compound 0.0316 µM, first compound 3.16 µM
[35] = second compound 0.0316 µM, first compound 10 µM
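Note: spheroids exposed to agents for 7 days before readout.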

## COc1cc(Nc2ncc3c(n2)-c2ccc(Cl)cc2C(c2c(F)cccc2OC)=NC3)ccc1C(=O)O + CC1OCC2(CCN(c3cnc(Sc4ccnc(N)c4Cl)c(N)n3)CC2)C1N
[1]
  IC50: > 10 µM
[2]
  IC50: > 10 µM
[3]
  IC50: > 10 µM
[4]
  IC50: > 10 µM
Curve of first compound, second compound 10 µM
  IC50: > 10 µM
[5]
  viability, T/C: 104%
[6]
  viability, T/C: 91.3%
[7]
  viability, T/C: 92.4%
[8]
  viability, T/C: 96.7%
[9]
  viability, T/C: 99%
[10]
  viability, T/C: 103%
[11]
  viability, T/C: 95.1%
[12]
  viability, T/C: 90.7%
[13]
  viability, T/C: 85.8%
[14]
  viability, T/C: 84.1%
[15]
  viability, T/C: 91.2%
[16]
  viability, T/C: 93.5%
[17]
  viability, T/C: 90%
[18]
  viability, T/C: 88.8%
[19]
  viability, T/C: 78%
[20]
  viability, T/C: 79.6%
[21]
  viability, T/C: 79.4%
[22]
  viability, T/C: 87.7%
[23]
  viability, T/C: 81.7%
[24]
  viability, T/C: 82.2%
[25]
  viability, T/C: 76.4%
[26]
  viability, T/C: 73.8%
[27]
  viability, T/C: 75.2%
[28]
  viability, T/C: 80.3%
Second compound 10 µM, first compound 0.0316 µM
  viability, T/C: 76.5%
Second compound 10 µM, first compound 0.1 µM
  viability, T/C: 69.3%
Second compound 10 µM, first compound 0.316 µM
  viability, T/C: 70.6%
Second compound 10 µM, first compound 1 µM
  viability, T/C: 67.7%
Second compound 10 µM, first compound 3.16 µM
  viability, T/C: 70.9%
Second compound 10 µM, first compound 10 µM
  viability, T/C: 70.9%

## CC(=O)OC12COC1CC(O)C1(C)C(=O)C(O)C3=C(C)C(OC(=O)C(O)C(NC(=O)OC(C)(C)C)c4ccccc4)CC(O)(C(OC(=O)c4ccccc4)C21)C3(C)C (stereo not given)
Compound 0.01 µM
  viability, T/C: 88.4% [middle of 5 runs]
Compound 0.0316 µM
  viability, T/C: 93.2% [middle of 5 runs]
Compound 0.1 µM
  viability, T/C: 102% [middle of 5 runs]
Compound 1 µM
  viability, T/C: 112% [middle of 5 runs]
Curve of compound
  IC50: > 3.16 µM

## Cn1nccc1Nc1nccc(-c2cc3c(s2)C(C)(C)N(CCN2CCOCC2)C3=O)n1 + C=CC(=O)N1CCN(c2nc(OCC3CCCN3C)nc3c2CCN(c2cccc4cccc(C)c24)C3)CC1CC#N
[29]
  IC50: 0.601 µM
[1]
  IC50: 0.506 µM
[2]
  IC50: 0.315 µM
[3]
  IC50: 0.421 µM
[4]
  IC50: < 0.0316 µM
[30]
  viability, T/C: 98.1%
[31]
  viability, T/C: 81%
[32]
  viability, T/C: 57.7%
[33]
  viability, T/C: 43.8%
[34]
  viability, T/C: 34%
[35]
  viability, T/C: 29.6%
[5]
  viability, T/C: 97.5%
[6]
  viability, T/C: 78.4%
[7]
  viability, T/C: 58%
[8]
  viability, T/C: 39.5%
[9]
  viability, T/C: 32.8%
[10]
  viability, T/C: 31.8%
[11]
  viability, T/C: 87.2%
[12]
  viability, T/C: 72.8%
[13]
  viability, T/C: 48.2%
[14]
  viability, T/C: 38.2%
[15]
  viability, T/C: 31.4%
[16]
  viability, T/C: 29.2%
[17]
  viability, T/C: 75.5%
[18]
  viability, T/C: 69.4%
[19]
  viability, T/C: 55%
[20]
  viability, T/C: 36.1%
[21]
  viability, T/C: 29.6%
[22]
  viability, T/C: 28.2%
[23]
  viability, T/C: 45.8%
[24]
  viability, T/C: 32.2%
[25]
  viability, T/C: 25.5%
[26]
  viability, T/C: 18.1%
[27]
  viability, T/C: 14.7%
[28]
  viability, T/C: 9.26%

## CC1OCC2(CCN(c3cnc(Sc4ccnc(N)c4Cl)c(N)n3)CC2)C1N (stereo not given) + C=CC(=O)N1CCN(c2nc(OCC3CCCN3C)nc3c2CCN(c2cccc4cccc(C)c24)C3)CC1CC#N
[29]
  IC50: > 10 µM
[1]
  IC50: > 10 µM
[2]
  IC50: > 10 µM
[3]
  IC50: 9.45 µM
[4]
  IC50: < 0.0316 µM
[30]
  viability, T/C: 97%
[31]
  viability, T/C: 85.7%
[32]
  viability, T/C: 76.6%
[33]
  viability, T/C: 68.4%
[34]
  viability, T/C: 69.7%
[35]
  viability, T/C: 56.6%
[5]
  viability, T/C: 103%
[6]
  viability, T/C: 89.8%
[7]
  viability, T/C: 71.6%
[8]
  viability, T/C: 69.6%
[9]
  viability, T/C: 63.4%
[10]
  viability, T/C: 61.6%
[11]
  viability, T/C: 94%
[12]
  viability, T/C: 84.7%
[13]
  viability, T/C: 70.5%
[14]
  viability, T/C: 67.9%
[15]
  viability, T/C: 60.2%
[16]
  viability, T/C: 57.3%
[17]
  viability, T/C: 79.4%
[18]
  viability, T/C: 73.4%
[19]
  viability, T/C: 64%
[20]
  viability, T/C: 56.2%
[21]
  viability, T/C: 56.8%
[22]
  viability, T/C: 48.6%
[23]
  viability, T/C: 46%
[24]
  viability, T/C: 40.2%
[25]
  viability, T/C: 36.1%
[26]
  viability, T/C: 33.6%
[27]
  viability, T/C: 35.1%
[28]
  viability, T/C: 27.1%
